Experimental data reported in article PMC10981743, “Network pharmacology, computational biology integrated surface plasmon resonance technology reveals the mechanism of ellagic acid against rotavirus” (Scientific Reports, 2024).

Target: T1, TLR4; Recombinant human TLR4 protein (Active) (Homo sapiens, UniProt O00206)
T1 construct: commercial recombinant protein (Abcam, 'Active'); immobilised on CM5 chip by amine coupling
Experiment: surface plasmon resonance (Biacore T200, TLR4 immobilised on CM5 chip)
Type: binding
Excerpt: surface plasmon resonance (Biacore T200, TLR4 immobilised on CM5 chip) on TLR4; Recombinant human TLR4 protein (Active)

T1 sequence (O00206 24-631 limits assumed): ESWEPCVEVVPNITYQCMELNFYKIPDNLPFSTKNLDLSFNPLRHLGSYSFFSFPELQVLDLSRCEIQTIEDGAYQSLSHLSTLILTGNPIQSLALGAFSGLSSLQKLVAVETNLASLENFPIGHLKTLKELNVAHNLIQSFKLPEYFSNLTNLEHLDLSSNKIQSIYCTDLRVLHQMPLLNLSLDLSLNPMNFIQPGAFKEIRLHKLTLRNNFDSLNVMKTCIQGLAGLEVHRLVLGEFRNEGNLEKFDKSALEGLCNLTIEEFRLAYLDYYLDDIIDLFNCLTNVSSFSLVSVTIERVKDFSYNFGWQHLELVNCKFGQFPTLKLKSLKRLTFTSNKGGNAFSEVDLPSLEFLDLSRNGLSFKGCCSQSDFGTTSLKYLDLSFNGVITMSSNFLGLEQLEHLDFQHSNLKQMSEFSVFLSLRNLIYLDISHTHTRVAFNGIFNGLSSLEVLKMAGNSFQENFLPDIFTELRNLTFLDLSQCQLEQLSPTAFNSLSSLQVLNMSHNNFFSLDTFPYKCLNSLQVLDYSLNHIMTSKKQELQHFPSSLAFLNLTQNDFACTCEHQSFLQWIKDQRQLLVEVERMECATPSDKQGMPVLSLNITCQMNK

Kd: 19.2 µM
SMILES: O=c1oc2c(O)c(O)cc3c(=O)oc4c(O)c(O)cc1c4c23 [Ellagic acid]
